Measurements: US6194398A, “Phosphonate nucleotide compound” (Mitsubishi Chemical Corporation, priority 1996, dated 2001)
Read-outs that look alike come from different tables or passages of the source.

Legend:
[1] = Cytotoxicity: concentration causing death to 50% of HB611 cells; type: cell-based; settings: human, read-out: 50% Cytotoxic concentration for HB611 cells
Procedure: A total of 2×10^4 cells of HB611 (a HBV-producing recombinant human hepatoma cell strain) were cultured at 37° C. in Dulbecco's ME medium containing 10% fetal bovine serum, streptomycin (100 μg/ml), penicillin (100 IU/ml) and Geneticin (trade name, an antibiotic substance manufactured by Life Technologies) (0.2 mg/ml). […] The amount of HBV-DNA in the cells was measured by Southern blotting to calculate concentration of the compound to give 50% inhibition of HBV-DNA synthesis. Also, the concentration of each compound required for causing death to 50% of the HB611 cells was calculated. For the sake of comparison, the same test was carried out on a known compound PMFA, a dipivaloyloxymethyl ester of PMEA (Reference Example 1) and a known compound 9-[2-[bis(2,2,2-trifluoroethyl)-phosphonylmethoxy]ethyl]-2-amino-6-p-toluylthiopurine disclosed in EP 632048 (Reference Example 2). In this connection, the compound No. corresponds to the compound No. in Table 1.

[2] = test system: Hepatitis B virus (HBV); test: HBV growth inhibition effect: HBV-DNA synthesis in HB611 cells, Southern blotting; type: cell-based; settings: read-out: 50% inhibitory concentration for HBV-DNA synthesis
Procedure: Hepatitis B virus (HBV) growth inhibition effect
HBV growth inhibition effect was measured in accordance with a known method (K. Ueda et al., Virology, 169, 213-216 (1989)).
A total of 2×10^4 cells of HB611 (a HBV-producing recombinant human hepatoma cell strain) were cultured at 37° C. in Dulbecco's ME medium containing 10% fetal bovine serum, streptomycin (100 μg/ml), penicillin (100 IU/ml) and Geneticin (trade name, an antibiotic substance manufactured by Life Technologies) (0.2 mg/ml). The medium was exchanged on the 2nd and 5th days of the culturing and then replaced by the medium supplemented with a sample to be tested at a final concentration of from 0.005 to 100 μM after 8, 11 and 14 days of the culturing, and DNA was recovered from the cells after 17 days of the culturing. The amount of HBV-DNA in the cells was measured by Southern blotting to calculate concentration of the compound to give 50% inhibition of HBV-DNA synthesis. Also, the concentration of each compound required for causing death to 50% of the HB611 cells was calculated. For the sake of comparison, the same test was carried out on a known compound PMFA, a dipivaloyloxymethyl ester of PMEA (Reference Example 1) and a known compound 9-[2-[bis(2,2,2-trifluoroethyl)-phosphonylmethoxy]ethyl]-2-amino-6-p-toluylthiopurine disclosed in EP 632048 (Reference Example 2). In this connection, the compound No. corresponds to the compound No. in Table 1.

[3] = test system: HBV; test: Inhibitory effect on HBV replication of low molecular weight fraction of liver homogenate of orally dosed mouse; type: cell-based, hepatitis B virus; settings: 0.2 g/kg oral, liver 1 hour after administration, 1% low molecular weight fraction in HB611 medium
Procedure: Inhibitory effect on HBV replication of low molecular weight fraction prepared from liver homogenate of a mouse that was orally administered with a compound.
A sample to be tested was orally administered to each mouse of three animals per group in a dose of 0.2 g/kg, liver perfusion was carried out from the portal vein one hour after the administration and then the liver was excised. The thus excised liver was mixed with the same weight of physiological saline and was homogenized, and then a sample of low molecular weight fraction of the homogenate was prepared using an ultrafiltration membrane having a cutoff of 5,000 molecular weight.
A total of 2×10^4 cells of HB611 were cultured at 37° C. in Dulbecco's ME medium containing 10% fetal bovine serum, streptomycin (100 μg/ml), penicillin (100 IU/ml) and Geneticin (0.2 mg/ml). The medium was exchanged on the 2nd and 5th days of the culturing and then replaced by the medium supplemented with 1% of the just described low molecular weight fraction sample after 8, 11 and 14 days of the culturing, and DNA was recovered from the cells after 17 days of the culturing. The amount of HBV-DNA in the cells was measured by Southern blotting to evaluate inhibitory effect on HBV-DNA synthesis in the cells. […]

[4] = test system: human immunodeficiency virus (HIV); settings: reported in literature; cited from earlier work
[5] = test system: herpes simplex virus type 2 (HSV-2); settings: reported in literature; cited from earlier work
[6] = test system: human hepatitis B virus (HBV); settings: reported in literature; cited from earlier work
[7] = test system: herpes simplex virus type 1 (HSV-1); settings: reported in literature; cited from earlier work
[8] = 408 h, HB611 cells, medium with sample on days 8, 11 and 14, DNA recovered after 17 days

CC(C)Sc1nc(N)nc2c1ncn2CCOCP(=O)(OCC(F)(F)F)OCC(F)(F)F [Compound 4, 2-amino-9-[2-[bis(2,2,2-trifluoroethyl)phosphonylmethoxy]ethyl]-6-i-propylthiopurine]
CC50 [1]: > 1000 µM | IC50 [2, 8]: 70 nM

CCCSc1nc(N)nc2c1ncn2CCOCP(=O)(OCC(F)(F)F)OCC(F)(F)F [Compound 3, 2-amino-9-[2-[bis(2,2,2-trifluoroethyl)phosphonylmethoxy]ethyl]-6-n-propylthiopurine]
% inhibition of HBV-DNA synthesis [3]: 49% | CC50 [1]: > 1000 µM | IC50 [2, 8]: 20 nM

Cc1ccc(Sc2nc(N)nc3c2ncn3CCOCP(=O)(OCC(F)(F)F)OCC(F)(F)F)cc1 [Ref. Ex. 2, 9-[2-[bis(2,2,2-trifluoroethyl)-phosphonylmethoxy]ethyl]-2-amino-6-p-toluylthiopurine]
IC50 [2, 8]: 60 nM

Nc1ncnc2c1ncn2CCOCP(=O)(O)O [PMEA, 9-(2-phosphonylmethoxy)ethyladenine]
CC50 [1]: 334 µM | effective against HIV [4]: effective | IC50 ([2]; HB611, 408 h): 300 nM | effective against HSV-2 [5]: effective | effective against HBV [6]: effective | effective against HSV-1 [7]: effective

CCSc1nc(N)nc2c1ncn2CCOCP(=O)(OCC(F)(F)F)OCC(F)(F)F [Compound 2, 2-amino-9-[2-[bis(2,2,2-trifluoroethyl)phosphonylmethoxy]ethyl]-6-ethylthiopurine]
CC50 [1]: > 1000 µM | IC50 [2, 8]: 60 nM

CC(C)(C)C(=O)OCOP(=O)(COCCn1cnc2c(N)ncnc21)OCOC(=O)C(C)(C)C [Ref. Ex. 1]
CC50 [1]: 17.7 µM | IC50 ([2]; HB611, 408 h): 1080 nM

CCCSc1nc(N)nc2c1ncn2CCOCP(=O)(O)O [Ref. Ex. 3, 2-amino-9-(2-phosphonylmethoxyethyl)-6-n-propylthiopurine]
% inhibition of HBV-DNA synthesis [3]: 17%

Nc1nc(N)c2ncn(CCOCP(=O)(O)O)c2n1 [PMDAP, 9-(2-phosphonylmethoxy)ethyl-2,6-diaminopurine]
effective against HIV [4]: effective | effective against HSV-2 [5]: effective | effective against HBV [6]: effective | effective against HSV-1 [7]: effective
